According to patent US3954730A, “6-(Substituted-cycloalkylcarboxamide) penicillanic acids” (Bayer Aktiengesellschaft, priority 1973, dated 1976):
Counter-ions that a name gives are not always drawn.

Assays:
E. coli 14 = test: Minimum inhibitory concentration (MIC) in vitro, liquid medium test tube series dilution test; type: cell-based; conditions: 24 hours incubation at 37° C
Method: (§1) They were determined in a liquid medium in a test tube series dilution test, the readings being taken after 24 hours incubation at 37° C.
(§2) The numbers allotted to the compounds of the invention in Table 1 correspond to the numbers of the Preparative Examples in which the preparation of the particular compounds are described.
(§3) The MIC is indicated by the non-turbid test tube in the dilution series. A complete medium of the following composition was used as the growth medium: […]

Staph. aureus 133 = test: as above; type: cell-based; conditions: 24 hours incubation at 37° C
Method: (§4) Table 1, which follows, specifies the minimum inhibitory concentrations (MIC) in vitro, in U/ml of nutrient medium of typical compounds of the invention. They were determined in a liquid medium in a test tube series dilution test, the readings being taken after 24 hours incubation at 37° C.
as §2, §3

Staph. aureus 1756 = test: as above; type: cell-based; conditions: 24 hours incubation at 37° C
Method: as §4, §2, §3

E. coli C 165 = test: as above; type: cell-based; conditions: 24 hours incubation at 37° C
Method: as §4, §2, §3

Ent. ATCC 9790 = test: as above; type: cell-based, Enterococcus; conditions: 24 hours incubation at 37° C
Method: as §1, §2, §3

Lactobacillus sp. = test: Turbidity test in Muller-Hinton nutrient broth at 100 μg/ml; type: cell-based
[1] = test system: Neisseria catarrhalis sp.; test: as above; type: cell-based
[2] = test system: Pasteurella pseudotuberculosis; type: cell-based; conditions: 100 μg/ml, 24 hours
[3] = test system: Diplococcus pneumoniae sp.; test: Turbidity test in Muller-Hinton nutrient broth at 100 μg/ml; type: cell-based
[4] = test system: Corynebacterium diphteriae gravis; test: as above; type: cell-based
[5] = test system: Corynebacterium pyrogenes M; test: as above; type: cell-based
[6] = test system: Streptococcus pyogenes W.; test: as above; type: cell-based
[7] = test system: Staphylococcus aureus 133; test: as above; type: cell-based
Shigella sp. = test: as above; type: cell-based
Bordetella bronciseptica = test: as above; type: cell-based
Clostridium tetani = type: cell-based; conditions: 100 μg/ml, 24 hours
E. coli BE = test: Turbidity test in Muller-Hinton nutrient broth at 100 μg/ml; type: cell-based; conditions: 24 hours
Clostridium botulinium = type: cell-based
Brucella sp. = type: cell-based; conditions: 100 μg/ml, 24 hours
Salmonella sp. = test: Turbidity test in Muller-Hinton nutrient broth at 100 μg/ml; type: cell-based
[8] = test system: Proteus indolnegativ, sp.; test: as above; type: cell-based
Haemophilus influenzae = test: as above; type: cell-based
Enterococcus sp. = test: as above; type: cell-based

Row | Structure (SMILES) | MIC (E. coli 14) | MIC (Staph. aureus 133) | MIC (Staph. aureus 1756) | MIC (E. coli C 165) | MIC (Ent. ATCC 9790) | further results
1 | CC1(C)S[C@@H]2[C@H](NC(=O)C3(C#N)CCC3)C(=O)N2[C@H]1C(=O)O [Example 5, sodium salt of 6(1-cyano-1-cyclobutylcarboxamido)-penicillanic acid] | 32-64 U/ml | 0.2 U/ml | 128 U/ml | 128 U/ml | 8 U/ml | –
2 | CC1(C)S[C@@H]2[C@H](NC(=O)C3CC3C#N)C(=O)N2[C@H]1C(=O)O (some centres unmarked) [Example 3, sodium salt of 6-(2-cyano-1-cyclopropylcarboxamido)-penicillanic acid] | 128-256 U/ml | 2-4 U/ml | – | – | 64-128 U/ml | –
3 | CC1(C)S[C@@H]2[C@H](NC(=O)C3CC(Cl)C3)C(=O)N2[C@H]1C(=O)O (some centres unmarked) [Example 4, sodium salt of 6-(3-chloro-cyclobutylcarboxamido)-penicillanic acid] | 32-64 U/ml | 2-4 U/ml | 32-64 U/ml | 128-256 U/ml | 8-16 U/ml | –
4 | CC1(C)S[C@@H]2[C@H](NC(=O)C3CC(Cl)C(Cl)C3)C(=O)N2[C@H]1C(=O)O (some centres unmarked) [Example 7, sodium salt of 6-(3,4-dichlorocyclopentylcarboxamido)-penicillanic acid] | 32 U/ml | 0.1 U/ml | 32-64 U/ml | 128 U/ml | 8-16 U/ml | –
5 | CC1(C)S[C@@H]2[C@H](NC(=O)C3CCC(Cl)C3)C(=O)N2[C@H]1C(=O)O (some centres unmarked) [Example 6, sodium salt of 6-(4-chloro-1-cyclopentylcarboxamide)-penicillanic acid] | 32 U/ml | 0.1 U/ml | 32-64 U/ml | 128 U/ml | 8-16 U/ml | –
6 | CC1(C)S[C@@H]2[C@H](NC(=O)C3CCC(Cl)CC3)C(=O)N2[C@H]1C(=O)O (some centres unmarked) [Example 9, sodium salt of 6-(4-chloro-1-cyclohexylcarboxamido)-penciillanic acid] | 64 U/ml | 0.1 U/ml | 64 U/ml | – | 8-16 U/ml | –
7 | CC1(C)S[C@@H]2[C@H](NC(=O)C3(C)CC3(Cl)Cl)C(=O)N2[C@H]1C(=O)O (some centres unmarked) [Example 1, sodium salt of 6-(2,2-dichloro-1-methyl-cyclopropylcarboxamido)-penicillanic acid] | 128 U/ml | 0.2 U/ml | 32-64 U/ml | – | 16-32 U/ml | freedom from turbidity (anti-bacterial action) (Lactobacillus sp.): free from turbidity; freedom from turbidity (anti-bacterial action) [1]: free from turbidity; freedom from turbidity (anti-bacterial action) [2]: free from turbidity; freedom from turbidity (anti-bacterial action) [3]: free from turbidity; freedom from turbidity (anti-bacterial action) [4]: free from turbidity; freedom from turbidity (anti-bacterial action) [5]: free from turbidity; freedom from turbidity (anti-bacterial action) [6]: free from turbidity; freedom from turbidity (anti-bacterial action) [7]: free from turbidity; freedom from turbidity (anti-bacterial action) (Shigella sp.): free from turbidity; freedom from turbidity (anti-bacterial action) (Bordetella bronciseptica): free from turbidity; freedom from turbidity (anti-bacterial action) (Clostridium tetani): free from turbidity; freedom from turbidity (anti-bacterial action) (E. coli BE): free from turbidity; freedom from turbidity (anti-bacterial action) (Clostridium botulinium): free from turbidity; freedom from turbidity (anti-bacterial action) (Brucella sp.): free from turbidity; freedom from turbidity (anti-bacterial action) (Salmonella sp.): free from turbidity; freedom from turbidity (anti-bacterial action) [8]: free from turbidity; freedom from turbidity (anti-bacterial action) (Haemophilus influenzae): free from turbidity; freedom from turbidity (anti-bacterial action) (Enterococcus sp.): free from turbidity
8 | CC1(C)S[C@@H]2[C@H](NC(=O)C3(C)CC3(Br)Br)C(=O)N2[C@H]1C(=O)O (some centres unmarked) [Example 2, sodium salt of 6-(2,2-dibromo-1-methyl-cyclopropyl-carboxamido)-penicillanic acid] | 128 U/ml | 0.2 U/ml | 128 U/ml | – | 32 U/ml | –
9 | CC1(C)S[C@@H]2[C@H](NC(=O)C3(Cl)CCCC3=O)C(=O)N2[C@H]1C(=O)O (some centres unmarked) [Example 8, Sodium salt of 6-(cyclopentanone-2-chloro-2-carboxamido)-penicillanic acid] | 128 U/ml | 2-4 U/ml | – | – | 128 U/ml | –
